A word on the IC50: it is the concentration needed to halve the response being measured.

From patent US20250171431A1, “HETEROCYCLIC INHIBITORS OF IGF-1R FOR TREATMENT OF DISEASE” (HORIZON THERAPEUTICS IRELAND DAC, priority 2023, published 2025) come the findings set out here.

Sequence of IGF-1R (P08069 31-1367): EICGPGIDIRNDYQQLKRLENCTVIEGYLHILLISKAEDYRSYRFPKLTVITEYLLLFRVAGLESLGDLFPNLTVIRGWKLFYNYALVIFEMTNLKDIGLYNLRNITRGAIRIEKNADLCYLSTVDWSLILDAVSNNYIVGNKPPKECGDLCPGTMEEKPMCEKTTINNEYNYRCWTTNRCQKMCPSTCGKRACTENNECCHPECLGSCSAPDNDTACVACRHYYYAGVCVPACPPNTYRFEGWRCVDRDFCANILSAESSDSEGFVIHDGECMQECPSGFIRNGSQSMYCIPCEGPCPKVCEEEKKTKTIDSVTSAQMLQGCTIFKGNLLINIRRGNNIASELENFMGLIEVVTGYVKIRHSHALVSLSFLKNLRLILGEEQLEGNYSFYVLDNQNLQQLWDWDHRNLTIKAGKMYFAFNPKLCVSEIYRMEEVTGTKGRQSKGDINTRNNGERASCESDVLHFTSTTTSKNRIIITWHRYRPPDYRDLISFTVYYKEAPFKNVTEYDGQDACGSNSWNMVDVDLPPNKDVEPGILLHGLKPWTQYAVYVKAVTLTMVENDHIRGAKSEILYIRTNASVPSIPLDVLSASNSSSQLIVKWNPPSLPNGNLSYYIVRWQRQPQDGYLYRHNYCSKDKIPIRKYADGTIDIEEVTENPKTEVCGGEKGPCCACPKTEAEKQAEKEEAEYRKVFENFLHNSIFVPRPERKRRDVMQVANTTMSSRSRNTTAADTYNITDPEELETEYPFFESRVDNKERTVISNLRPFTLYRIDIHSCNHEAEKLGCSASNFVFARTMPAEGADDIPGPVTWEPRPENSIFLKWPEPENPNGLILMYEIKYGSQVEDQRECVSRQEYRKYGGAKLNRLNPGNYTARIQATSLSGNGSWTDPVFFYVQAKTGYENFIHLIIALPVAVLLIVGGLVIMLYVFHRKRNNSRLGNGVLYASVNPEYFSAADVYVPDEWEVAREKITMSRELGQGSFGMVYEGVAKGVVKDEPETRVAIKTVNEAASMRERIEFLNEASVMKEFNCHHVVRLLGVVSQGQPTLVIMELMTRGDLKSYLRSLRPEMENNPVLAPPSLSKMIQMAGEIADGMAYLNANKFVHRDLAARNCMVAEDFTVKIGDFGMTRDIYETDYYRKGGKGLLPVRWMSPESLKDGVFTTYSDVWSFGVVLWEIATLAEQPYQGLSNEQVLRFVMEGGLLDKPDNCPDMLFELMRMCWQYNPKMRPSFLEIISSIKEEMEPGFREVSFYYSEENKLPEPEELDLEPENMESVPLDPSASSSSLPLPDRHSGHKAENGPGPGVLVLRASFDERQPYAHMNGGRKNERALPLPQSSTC

This test has as its target IGF-1R (Homo sapiens (Human), UniProt P08069). The experiment in a line: Example B-1: IGF-1R Assay (PC3 cells, IGF1 stimulation, AlphaLISA). The format is cell-based. Conditions: 200 ng/mL IGF1 stimulation, read-out: Biological Activity against IGF-1R IC50. The method, then: 50K PC3 cells were seeded on day 1 in 50 μL of media in 96-well plate and incubated overnight at 37° C., 5% CO2. On day 2, all cells were expected to be at 80-90% confluency. Cells were starved for two hours by changing the media to 90 μL of EMEM serum-free media and incubated for 2 hours. Next, cells were treated with 10 μL of 10× concentrated and 3× serially diluted compounds for two hours. It makes 1× of compounds in 100 μL media. This was followed by stimulation of cells with 11×IGF1 for 30 min in 10 μL of serum-free EMEM media at the final concentration of 200 ng/mL.
The media was removed and replaced by 50 μL of 1× lysis buffer from the AlphaLISA kit (with 1× of cOmplete™ protease inhibitor). The plates were sealed, and cells were allowed to lyse for 10 min in the shaker before storing the plate at −20° C. until used. The AlphaLISA assay with processed cell lysates were performed as described in the protocol. Briefly, 10 μL of the undiluted sample were loaded to 384 well Optiplates and 5 μL of the acceptor mix (as described in the AlphaLISA kit) was added to each well. The plates were sealed and briefly vortexed followed by the incubation at RT for 3 hours. In the dark, 5 μL of donor mix was added to each well. All plates were sealed and stored at RT overnight. The plates were read in EnVision reader using standard AlphaLISA settings.
Compound activity was analyzed using CBIS data analysis suite (ChemInnovation, CA). Percentage inhibition was calculated using the following formula: % Inhibition=100%×(1−(mean RLU of test sample−mean RLU of vehicle control)/(mean RLU of EC80 control−mean RLU of vehicle control)). The activity for representative examples of the invention is shown in the following table, wherein A: IC50≤500 nM; B: 500 nM<IC50≤2 μM; C: 2 μM<IC50≤10 μM; D: IC50>10 μM.
(In general: In Alpha technology, singlet oxygen from a donor bead excites a nearby acceptor bead.)
For `c1cc(Nc2cnc3c(c2)CC2(CC3)OCCO2)nc(Nc2ccc(OCCCN3CCOCC3)cc2)n1` [Compound 68, 4-(7′,8′-dihydro-5′H-spiro[1,3-dioxolane-2,6′-quinolin]-3′-ylamino)-2-[p-(3-morpholinopropoxy)phenylamino] pyrimidine], the IC50 was no more than 500 nM.
The value for `COc1cc(Nc2nccc(Nc3cnc4c(c3)CCC(C)C4)n2)ccc1OCCCN1CCCCC1` (stereo not drawn) [Compound 69, 2-[3-methoxy-4-(3-piperidinopropoxy)phenylamino]-4-(7-methyl-5,6,7,8-tetrahydro-3-quinolylamino)pyrimidine] was no more than 500 nM; that for `COc1cc(Nc2nccc(Nc3cnc4c(c3)C3CCC(C4)C3)n2)ccc1OCCCN1CCCCC1` (stereo not drawn) [Compound 70, 4-{6-azatricyclo[7.2.1.0^2,7]dodeca-2(7),3,5-trien-4-ylamino}-2-[3-methoxy-4-(3-piperidinopropoxy)phenylamino] pyrimidine] was no more than 500 nM; that for `COc1cc(Nc2nccc(Nc3cnc4c(c3)CC[C@@H](C)C4)n2)ccc1OCCCN1CCCCC1` [Compound 71, 4-[(R)-7-methyl-5,6,7,8-tetrahydro-3-quinolylamino]-2-[3-methoxy-4-(3-piperidinopropoxy)phenylamino] pyrimidine] was no more than 500 nM.
The value for `CCc1ccc2cc(Nc3ccnc(Nc4ccc(OCCCN5CCCCC5)c(OC)c4)n3)cnc2c1` [Compound 72, 4-(7-ethyl-3-quinolylamino)-2-[3-methoxy-4-(3-piperidinopropoxy)phenylamino]pyrimidine] was no more than 500 nM; that for `COc1cc(Nc2nccc(Nc3cnc4c(c3)CCCC4(C)C)n2)ccc1OCCCN1CCCCC1` [Compound 73, 4-(8,8-dimethyl-5,6,7,8-tetrahydro-3-quinolylamino)-2-[3-methoxy-4-(3-piperidinopropoxy)phenylamino] pyrimidine] was no more than 500 nM; that for `COc1cc(Nc2nccc(Nc3cnc4c(c3)CCCC4C(C)(C)C)n2)ccc1OCCCN1CCCCC1` (stereo not drawn) [Compound 74, 4-[8-(tert-butyl)-5,6,7,8-tetrahydro-3-quinolylamino]-2-[3-methoxy-4-(3-piperidinopropoxy)phenylamino] pyrimidine] was no more than 500 nM.
As for `COc1cc(Nc2nccc(Nc3cnc4c(c3)C3CCC4CC3)n2)ccc1O[C@H]1C[C@H](N(C)C)C1` [Compound 75, 4-{3-azatricyclo[6.2.2.02,7]dodeca-2(7),3,5-trien-5-ylamino}-2-{3-methoxy-4-[(1r,3r)-3-(dimethylamino)cyclobutoxy]phenylamino}pyrimidine], the figure is no more than 500 nM; as for `COc1cc(Nc2nccc(Nc3cnc4c(c3)C3CCC4C3)n2)ccc1O[C@H]1C[C@H](N(C)C)C1` (stereo partly drawn) [Compound 76, 4-(3-azatricyclo[6.2.1.02,7]undeca-2,4,6-trien-5-ylamino)-2-{3-methoxy-4-[(1r,3r)-3-(dimethylamino)cyclobutoxy]phenylamino}pyrimidine], no more than 500 nM.
`COc1cc(Nc2nccc(Nc3cnc4c(c3)CCC3(CCCC3)C4)n2)ccc1O[C@H]1C[C@H](N(C)C)C1` [Compound 78, 4-(6′,8′-dihydro-5′H-spiro[cyclopentane-1,7′-quinolin]-3′-ylamino)-2-{3-methoxy-4-[(1r,3r)-3-(dimethylamino)cyclobutoxy]phenylamino}pyrimidine]: the IC50 was no more than 500 nM.
The value for `COc1cc(Nc2nccc(Nc3cnc4c(c3)CC3(CCCC3)CC4)n2)ccc1O[C@H]1C[C@H](N(C)C)C1` [Compound 79, 4-(7′,8′-dihydro-5′H-spiro[cyclopentane-1,6′-quinolin]-3′-ylamino)-2-{3-methoxy-4-[(1r,3r)-3-(dimethylamino)cyclobutoxy]phenylamino}pyrimidine] was no more than 500 nM.
The value for `COc1cc(Nc2nccc(Nc3cnc4c(c3)CC3(CCC3)CC4)n2)ccc1O[C@H]1C[C@H](N(C)C)C1` [Compound 80, 4-(7′,8′-dihydro-5′H-spiro[cyclobutane-1,6′-quinolin]-3′-ylamino)-2-{3-methoxy-4-[(1r,3r)-3-(dimethylamino)cyclobutoxy]phenylamino}pyrimidine] was no more than 500 nM.
The value for `COc1cc(Nc2nccc(Nc3cnc4c(c3)CC(F)(F)CC4)n2)ccc1O[C@H]1C[C@H](N(C)C)C1` [Compound 81, 4-(6,6-difluoro-5,6,7,8-tetrahydro-3-quinolylamino)-2-{3-methoxy-4-[(1r,3r)-3-(dimethylamino)cyclobutoxy]phenylamino}pyrimidine] was no more than 500 nM; that for `COc1cc(Nc2nccc(Nc3cnc4c(c3)CC(O)CC4)n2)ccc1O[C@H]1C[C@@H](N(C)C)C1` (stereo partly drawn) [Compound 82, 3-(2-{3-methoxy-4-[(1s,3s)-3-(dimethylamino)cyclobutoxy]phenylamino}-4-pyrimidinylamino)-5,6,7,8-tetrahydro-6-quinolinol] was 500 to 2000 nM; that for `COc1cc(Nc2nccc(Nc3cnc4ncc(Cl)cc4c3)n2)ccc1O[C@H]1C[C@@H](N(C)C)C1` [Compound 83, 4-(6-chloro-1,8-diaza-3-naphthylamino)-2-{3-methoxy-4-[(1s,3s)-3-(dimethylamino)cyclobutoxy]phenylamino}pyrimidine] was no more than 500 nM.
On to `COc1cc(Nc2nccc(Nc3cnc4c(Cl)cncc4c3)n2)ccc1O[C@H]1C[C@@H](N(C)C)C1` [Compound 84, 4-(8-chloro-1,6-diaza-3-naphthylamino)-2-{3-methoxy-4-[(1s,3s)-3-(dimethylamino)cyclobutoxy]phenylamino}pyrimidine], for which the IC50 was 500 to 2000 nM.
As for `COc1cc(Nc2nccc(Nc3cnc4cc(F)cnc4c3)n2)cnc1O[C@H]1C[C@@H](N(C)C)C1` [Compound 85, 4-(7-fluoro-1,5-diaza-3-naphthylamino)-2-{5-methoxy-6-[(1s,3s)-3-(dimethylamino)cyclobutoxy]-3-pyridylamino}pyrimidine], the figure is 500 to 2000 nM; as for `COc1cc(Nc2nccc(Nc3cnc4ncc(F)cc4c3)n2)ccc1O[C@H]1C[C@@H](N(C)C)C1` [Compound 86, 4-(6-fluoro-1,8-diaza-3-naphthylamino)-2-{3-methoxy-4-[(1s,3s)-3-(dimethylamino)cyclobutoxy]phenylamino}pyrimidine], no more than 500 nM.
`COc1cc(Nc2nccc(Nc3cnc4cnc(Cl)cc4c3)n2)ccc1O[C@H]1C[C@@H](N(C)C)C1` [Compound 87, 4-(6-chloro-1,7-diaza-3-naphthylamino)-2-{3-methoxy-4-[(1s,3s)-3-(dimethylamino)cyclobutoxy]phenylamino}pyrimidine]: the IC50 was no more than 500 nM.
The value for `COc1cc(Nc2nccc(Nc3cnc4cncc(F)c4c3)n2)ccc1O[C@H]1C[C@@H](N(C)C)C1` [Compound 88, N2-(4-((1s,3s)-3-(dimethylamino)cyclobutoxy)-3-methoxyphenyl)-N4-(5-fluoro-1,7-naphthyridin-3-yl)pyrimidine-2,4-diamine] was no more than 500 nM.
For `COc1cc(Nc2nccc(Nc3cnc4cc(F)c(F)cc4c3)n2)cnc1OC1CCNCC1` [Compound 89, N4-(6,7-difluoroquinolin-3-yl)-N2-(5-methoxy-6-(piperidin-4-yloxy)pyridin-3-yl)pyrimidine-2,4-diamine], the IC50 lay in the range of 500 to 2000 nM.
The value for `COc1nc(N2CCN(C)CC2)ccc1Nc1nccc(Nc2cc3cccc(F)c3nc2O)n1` [Compound 90, 8-fluoro-3-{2-[2-methoxy-6-(4-methyl-1-piperazinyl)-3-pyridylamino]-4-pyrimidinylamino}-2-quinolinol] was no more than 500 nM.
As for `COc1cc(Nc2nccc(Nc3cnc4c(F)cccc4c3)n2)ccc1OCCCN1CCCCC1` [Compound 96, 4-(8-fluoro-3-quinolylamino)-2-[3-methoxy-4-(3-piperidinopropoxy)phenylamino]pyrimidine], the IC50 was no more than 500 nM.
As for `COc1cc(Nc2nccc(Nc3cnc4cc(F)ccc4c3)n2)ccc1OCCCN1CCCCC1` [Compound 97, 4-(7-fluoro-3-quinolylamino)-2-[3-methoxy-4-(3-piperidinopropoxy)phenylamino]pyrimidine], the figure is no more than 500 nM.
The value for `COc1cc(Nc2nccc(Nc3cnc4cc(C)ccc4c3)n2)ccc1OCCCN1CCCCC1` [Compound 98, 2-[3-methoxy-4-(3-piperidinopropoxy)phenylamino]-4-(7-methyl-3-quinolylamino)pyrimidine] was no more than 500 nM; that for `COc1cc(Nc2nccc(Nc3cnc4c(C)cccc4c3)n2)ccc1OCCCN1CCCCC1` [Compound 99, 2-[3-methoxy-4-(3-piperidinopropoxy)phenylamino]-4-(8-methyl-3-quinolylamino)pyrimidine] was no more than 500 nM.
As for `COc1cc(Nc2nccc(Nc3cnc4c(c3)OCC(C)O4)n2)ccc1OCCCN1CCCCC1` (stereo not drawn) [Compound 101, 2-[3-methoxy-4-(3-piperidinopropoxy)phenylamino]-4-(3-methyl-2,3-dihydro-1,4-dioxa-5-aza-7-naphthylamino)pyrimidine], the figure is no more than 500 nM.
